Reference: ChEMBL document CHEMBL5729370 (2022)

molecular target: T1, Mitogen-activated protein kinase kinase kinase 5 (Homo sapiens, UniProt Q99683); test: HTRF KinEASE Assay: ASK1 was purchased from Thermofisher (Catalogue #PV4011), ATP was purchased from Sigma (Catalogue #A7699), HTRF® KinEASE™ Assay System was obtained from Cisbio (Bedford, Mass.). ½ Area plate was purchased from Perkin Elmer (Catalogue ##6005560). HTRF® KinEASE™-STK is a generic method for measuring serine/threonine kinase activities using a time-resolved fluorescence resonance energy transfer (TR-FRET) immunoassay. The IC50 value for each compound was determined in the presence of compound (various concentration from 0 to 10 μM) and a fixed amount of ATP and peptide substrates. The test compound, 1 μM STK3 peptide substrate, and 5 μM of ASK1 kinase are incubated with kinase reaction buffer containing 50 mM HEPES Ph 7.5, 0.01% BRIJ-35, 10 mM MgCl2, and 1 mM EGTA for 30 minutes. 100 μM ATP is added to start kinase reaction and incubated for 3 hours. The STK3-antibody labeled with Eu3+-Cryptate and 125 nM streptavidin-XL665 are mixed in a single addition with stop reagents provided by the Cisbio kit used to stop the kinase reaction. Fluorescence is detected using an Envision Multilabeled 2014 reader from PerkinElmer. The Fluorescence is measured at 615 nm (Cryptate) and 665 nm (XL665) and a ratio of 665 nm/615 nm is calculated for each well. The resulting TR-FRET is proportional to the phosphorylation level. Staurosporine was used as the positive control. IC50 was determined by Xlfit 5.3.; type: single protein
T1 sequence (Q99683 whole entry): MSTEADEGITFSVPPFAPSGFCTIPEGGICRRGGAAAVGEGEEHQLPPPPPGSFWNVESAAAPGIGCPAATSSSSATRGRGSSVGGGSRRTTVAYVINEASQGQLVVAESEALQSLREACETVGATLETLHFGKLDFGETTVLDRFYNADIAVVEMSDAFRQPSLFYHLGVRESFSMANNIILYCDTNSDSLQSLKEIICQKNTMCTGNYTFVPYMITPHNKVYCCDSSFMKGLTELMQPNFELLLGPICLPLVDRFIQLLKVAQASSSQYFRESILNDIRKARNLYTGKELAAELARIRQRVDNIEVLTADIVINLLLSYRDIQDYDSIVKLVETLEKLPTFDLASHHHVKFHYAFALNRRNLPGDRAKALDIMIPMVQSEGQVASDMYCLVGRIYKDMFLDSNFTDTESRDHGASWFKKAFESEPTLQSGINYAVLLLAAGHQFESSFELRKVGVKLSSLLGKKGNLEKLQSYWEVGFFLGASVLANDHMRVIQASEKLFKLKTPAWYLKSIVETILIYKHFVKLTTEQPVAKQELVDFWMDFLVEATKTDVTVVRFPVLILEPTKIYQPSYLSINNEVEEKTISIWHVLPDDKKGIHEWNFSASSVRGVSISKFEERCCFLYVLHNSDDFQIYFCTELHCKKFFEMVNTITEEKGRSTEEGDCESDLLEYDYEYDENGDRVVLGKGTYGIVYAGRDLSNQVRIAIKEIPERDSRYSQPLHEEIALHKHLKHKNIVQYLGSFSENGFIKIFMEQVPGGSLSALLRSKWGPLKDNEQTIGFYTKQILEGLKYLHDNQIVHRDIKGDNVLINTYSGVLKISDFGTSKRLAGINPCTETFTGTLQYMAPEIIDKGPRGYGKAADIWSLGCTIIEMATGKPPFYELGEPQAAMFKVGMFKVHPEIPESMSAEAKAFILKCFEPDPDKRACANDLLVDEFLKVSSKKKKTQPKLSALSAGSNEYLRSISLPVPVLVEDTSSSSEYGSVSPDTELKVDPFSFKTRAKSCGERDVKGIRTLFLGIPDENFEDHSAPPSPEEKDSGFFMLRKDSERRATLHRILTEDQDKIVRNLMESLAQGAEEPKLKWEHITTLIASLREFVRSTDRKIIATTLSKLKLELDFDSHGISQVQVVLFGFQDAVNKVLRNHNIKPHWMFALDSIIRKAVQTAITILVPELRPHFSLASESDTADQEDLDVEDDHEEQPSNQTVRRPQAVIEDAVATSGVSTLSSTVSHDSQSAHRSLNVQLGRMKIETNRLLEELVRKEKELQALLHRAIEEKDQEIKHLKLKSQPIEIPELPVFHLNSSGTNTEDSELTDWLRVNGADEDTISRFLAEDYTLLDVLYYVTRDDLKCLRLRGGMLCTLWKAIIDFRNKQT

Row | SMILES | IC50 [nM]
1 | CCOC(=O)N1CCc2cc(OC)c(C(=O)Nc3cccc(-c4nnc5n4CCCC5)n3)cc2C1 | 10 to 100
2 | CCOC(=O)N1CCc2cc(F)c(C(=O)Nc3cccc(-c4nnc5n4CCCC5)n3)cc2C1 | > 1000
3 | CCOC(=O)N1CCc2cc(OC)c(C(=O)Nc3cccc(-c4nnc5n4C(C)(C)CC5)n3)cc2C1 | < 1.25

The remaining lines, values ahead:

Row | IC50 [nM] | SMILES
4 | < 1.25 | CCOC(=O)N1CCc2cc(OC)c(C(=O)Nc3cccc(-c4nnc5n4[C@H](C)CC5)n3)cc2C1
5 | > 1000 | CCOC(=O)N1CCc2cnc(C(=O)Nc3cccc(-c4nnc5n4CCCC5)n3)cc2C1
